The conditions of data set [1]: BDC rats, over 72 hours.
The nature of data set [2]: Stability of GNE4 in rat intestinal S9 and feces. In kind it is in vitro ADME. The settings on record: rat intestinal S9 and feces (data not shown).

Read-outs that look alike come from different tables or passages of the source.

For `CC(=O)N[C@H]1CC[C@H](CNc2ncc(Cl)c(Nc3cc(C4CC4)[nH]n3)n2)CC1` [GNE4, N-((1r,4r)-4-(((5-chloro-4-((5-cyclopropyl-1H-pyrazol-3-yl)amino)pyrimidin-2-yl)amino)methyl)cyclohexyl)acetamide], the “GNE4 amount relative to parent (fold less) in urine, feces and bile combined” value in data set [1] is about 8 fold; the “GNE4 amount relative to parent (fold less) in urine, feces and bile combined” value (intact rats, over 72 hours) is recorded as “approximately 13 fold”. Moreover, in data set [2], the Stability to hydrolysis entry is listed as “stable to hydrolysis”. Besides, the “Amount of GNE4 (N-acetylated metabolite of GNE1) detected in feces” value (rat, after IV GNE1, up to 24 hours, % of total dose) was 9.5%.

For the origin of these results see paper PMC5405622 (Drug Metabolism Letters, 2016).
